Patent US20260098026A1, “M4 ACTIVATORS/MODULATORS AND USES THEREOF” (Cerevel Therapeutics, LLC, priority 2022, published 2026)

Columns and labels:
[1] = target: T1, M3 muscarinic acetylcholine receptor (mAChR) (Homo sapiens, UniProt P20309); assay: FLIPR calcium assay (Fluo 8), M3-overexpressing CHO-K1 cells; assay type: cell-based; conditions: FLIPR calcium
T1 construct: expressed in transfected cells; host or cells: CHO-K1
Procedure: Stimulation of a Gq-coupled G-protein coupled receptors (GPCRs), result in an efflux of calcium from the endoplasmic reticulum to the cytoplasm (Berridge, 1993), thus rendering this assay appropriate for the assessment of M1, M3 and M5 receptors. CHO-K1 cells overexpressing the M1, M3, or M5 muscarinic acetylcholine receptor (mAChR) were dispensed at 15,000 cells per well in 30 μl volume to 384-well plates and grown overnight at 37° C. in a 5% CO2 atmosphere. Fluo-8 Solution, 10 μl per well, was added to each well and incubated for 30 minutes at 37° C. in a 5% CO2 atmosphere. Compounds diluted in Hanks' balanced salt solution (HBSS) were transferred to the cell assay plate at 10 μl per well, and then read on a FLIPR instrument. EC50 and Emax figures were calculated from the resulting data for each receptor subtype.

M4 mAChR = target: T2, M4 mAChR (Homo sapiens, UniProt P08173); assay: cAMP TR-FRET assay with forskolin, M4-overexpressing CHO-K1 cells; assay type: cell-based; conditions: cAMP TR-FRET with forskolin
T2 construct: expressed in transfected cells; host or cells: CHO-K1
T2 sequence (P08173 1-479): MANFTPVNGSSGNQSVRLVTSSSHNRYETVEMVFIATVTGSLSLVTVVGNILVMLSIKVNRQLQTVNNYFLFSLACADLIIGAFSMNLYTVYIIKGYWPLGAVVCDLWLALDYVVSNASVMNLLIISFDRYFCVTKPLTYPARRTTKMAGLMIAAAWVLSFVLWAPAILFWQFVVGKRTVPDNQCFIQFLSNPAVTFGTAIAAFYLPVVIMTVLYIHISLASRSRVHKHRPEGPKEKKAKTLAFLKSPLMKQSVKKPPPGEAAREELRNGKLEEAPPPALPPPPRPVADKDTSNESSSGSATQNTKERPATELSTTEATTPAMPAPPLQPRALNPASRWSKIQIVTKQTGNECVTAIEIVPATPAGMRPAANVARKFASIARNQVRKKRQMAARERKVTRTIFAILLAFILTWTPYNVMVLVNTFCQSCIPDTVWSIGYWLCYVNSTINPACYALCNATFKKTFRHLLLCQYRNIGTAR
Description: The M2 and M4 mACh receptors are Gi-coupled receptors which, upon activation, produce a decrease in cAMP. Assays were developed that measured the potency and efficacy of compounds at the M2 or M4 mAChR using M2- or M4-overexpressing CHO-K1 cell lines. Time-resolved fluorescence resonance energy transfer (TR-FRET) technology was used, where signal occurs as a result of transfer of energy if the donor molecule is in close proximity to an acceptor molecule when the molecules have bound to the molecule of interest. The cAMP detection is a competition binding assay, where cAMP produced by cells competes for binding with the labeled donor molecule to the anti-cAMP acceptor antibody. Due to the low basal levels of cAMP in the CHO-K1 cell line, forskolin was used to increase cAMP levels to enable assessment of agonist activity at the mAChR of interest.

T1 sequence (P20309 whole entry): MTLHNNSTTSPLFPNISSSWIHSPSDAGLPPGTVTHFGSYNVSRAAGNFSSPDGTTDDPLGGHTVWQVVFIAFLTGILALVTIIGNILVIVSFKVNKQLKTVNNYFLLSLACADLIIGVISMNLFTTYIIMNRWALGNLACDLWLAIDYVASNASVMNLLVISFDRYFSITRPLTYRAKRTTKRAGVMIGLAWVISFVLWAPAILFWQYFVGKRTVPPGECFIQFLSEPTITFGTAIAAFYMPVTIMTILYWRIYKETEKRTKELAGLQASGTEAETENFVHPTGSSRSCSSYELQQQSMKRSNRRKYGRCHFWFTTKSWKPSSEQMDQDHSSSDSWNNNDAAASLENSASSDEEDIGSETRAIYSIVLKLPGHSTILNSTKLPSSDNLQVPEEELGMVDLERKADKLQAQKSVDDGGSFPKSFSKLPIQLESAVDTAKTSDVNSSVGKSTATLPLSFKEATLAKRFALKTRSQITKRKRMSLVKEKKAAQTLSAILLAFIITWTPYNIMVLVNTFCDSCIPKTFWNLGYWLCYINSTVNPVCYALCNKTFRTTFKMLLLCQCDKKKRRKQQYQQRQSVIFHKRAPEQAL

| SMILES | EC50 [1] [µM] | Emax (M4 mAChR) [%] |
| --- | --- | --- |
| CCOC(=O)N1CC2(CC[C@@H](N3CCN(c4cc(F)cnc4-c4cccc(C#N)c4)CC3)C2)C1 [Compound A39] | > 10 | 80 to 100 |
| CCOC(=O)N1CC2(CC[C@@H](N3CCN(c4cc(F)cnc4-c4ccc(O)c(OC)c4)CC3)C2)C1 [Compound A40] | > 10 | 80 to 100 |
| CCOC(=O)N1CC2(CC[C@@H](N3CCN(c4cc(F)cnc4-c4cncc(C(C)(C)O)c4)CC3)C2)C1 [Compound A41] | > 10 | 80 to 100 |
| CCOC(=O)N1CC2(CC[C@@H](N3CCN(c4cc(F)cnc4-c4cc(F)ccc4O)CC3)C2)C1 [Compound A42] | > 10 | 80 to 100 |
| CCOC(=O)N1CC2(CC[C@@H](N3CCN(c4cc(F)cnc4-c4ccc(C#N)c(OC)c4)CC3)C2)C1 [Compound A43] | > 10 | 80 to 100 |
| CCOC(=O)N1CC2(CC[C@@H](N3CCN(c4cc(F)cnc4-c4ccc(O)c(F)c4)CC3)C2)C1 [Compound A44] | > 10 | 80 to 100 |
| CCOC(=O)N1CC2(CC[C@@H](N3CCN(c4cc(F)cnc4-c4ccncc4F)CC3)C2)C1 [Compound A45] | > 10 | 80 to 100 |
| CCOC(=O)N1CC2(CC[C@@H](N3CCN(c4cc(F)cnc4-c4cccnc4OC)CC3)C2)C1 [Compound A46] | > 10 | 80 to 100 |
| CCOC(=O)N1CC2(CC[C@@H](N3CCN(c4cc(F)cnc4-c4ccccc4C#N)CC3)C2)C1 [Compound A47] | > 10 | 80 to 100 |
| CCOC(=O)N1CC2(CC[C@@H](N3CCN(c4cc(F)cnc4-c4ccc5c(c4)OCCO5)CC3)C2)C1 [Compound A48] | > 10 | 80 to 100 |
| CCOC(=O)N1CC2(CC[C@@H](N3CCN(c4cc(F)cnc4-c4cc(C)cnc4OC)CC3)C2)C1 [Compound A50] | > 10 | 50 to 79.9 |
| CCOC(=O)N1CC2(CC[C@@H](N3CCN(c4cc(F)cnc4-c4ccc5cnn(C)c5c4)CC3)C2)C1 [Compound A54] | > 10 | 80 to 100 |
| CCOC(=O)N1CC2(CC[C@@H](N3CCN(c4cc(F)cnc4-c4ccnc(F)c4)CC3)C2)C1 [Compound A55] | > 10 | 80 to 100 |
| CCOC(=O)N1CC2(CC[C@@H](N3CCN(c4cc(F)cnc4-c4ccc(N(C)C)nc4)CC3)C2)C1 [Compound A56] | > 10 | 80 to 100 |
| CCOC(=O)N1CC2(CC[C@@H](N3CCN(c4cc(F)cnc4-c4cccc(CO)c4)CC3)C2)C1 [Compound A57] | > 10 | 80 to 100 |
| CCOC(=O)N1CC2(CC[C@@H](N3CCN(c4cc(F)cnc4-c4cccc5c4cnn5C)CC3)C2)C1 [Compound A58] | > 10 | 80 to 100 |
| CCOC(=O)N1CC2(CC[C@@H](N3CCN(c4cc(F)cnc4-c4cccc5nn(C)cc45)CC3)C2)C1 [Compound A60] | > 10 | 80 to 100 |
| CCOC(=O)N1CC2(CC[C@@H](N3CCN(c4cc(F)cnc4-c4cccc5c[nH]nc45)CC3)C2)C1 [Compound A61] | > 10 | 80 to 100 |
| CCOC(=O)N1CC2(CC[C@@H](N3CCN(c4cc(F)cnc4-c4cccc5n[nH]cc45)CC3)C2)C1 [Compound A62] | > 10 | 80 to 100 |
| CCOC(=O)N1CC2(CC[C@@H](N3CCN(c4cc(F)cnc4-c4ccncc4C#N)CC3)C2)C1 [Compound A64] | > 10 | 80 to 100 |
| CCOC(=O)N1CC2(CC[C@@H](N3CCN(c4cc(F)cnc4-c4cccc5cnn(C)c45)CC3)C2)C1 [Compound A65] | > 10 | 50 to 79.9 |
| CCOC(=O)N1CC2(CC[C@@H](N3CCN(c4cc(F)cnc4-c4ccc5cn(C)nc5c4)CC3)C2)C1 [Compound A68] | > 10 | 80 to 100 |
| CCOC(=O)N1CC2(CC[C@@H](N3CCN(c4cc(F)cnc4-c4cnccc4OC)CC3)C2)C1 [Compound A69] | > 10 | 80 to 100 |
| CCOC(=O)N1CC2(CC[C@@H](N3CCN(c4cc(F)cnc4-c4ccc(OC)c(CO)c4)CC3)C2)C1 [Compound A72] | > 10 | 50 to 79.9 |
